Measurements: patent EP3319959B1, “HETERO-HALO INHIBITORS OF HISTONE DEACETYLASE” (Alkermes, Inc., priority 2015, dated 2017)

How the values were obtained:
HDAC1 = HDAC1 (Homo sapiens, UniProt Q13547); assay: Reporter displacement assay (HDAC1); assay type: binding
HDAC2 [1] = target: T1, HDAC2 (Homo sapiens, UniProt Q92769); assay: Reporter displacement assay (HDAC2); assay type: binding; details: 20 nM HDAC2, 180 nM reporter probe, read after 4 hours; Kd by Cheng Prusoff equation
T1 construct: purchased Proteros
Procedure: HDAC2 containing a C-terminal HIS-Tag (Proteros) and fluorescently-labeled anti-HIS-antibody are diluted in one vial in assay buffer 50 mM Tris, pH 8.0, 1 mM DTT, 150 mM NaCl, and 0.01% Tween20. Components are pre-incubated for 30 min, then a small volume of reporter probe (Proteros) is added from a highly concentrated stock and incubation is continued for another 30 min. […] Ten µl/well of pre-formed complex are transferred into 384 well assay plates (Corning). Compounds to be profiled are serially diluted from 1x10^1 - 5.7x10^-5 mM in DMSO and 60 nl are added to assay plates by pintool transfer (CybiWell, Cybio). Fluorescence intensity signal is read after 4 hours in a Pherastar FS (BMG Labtech) at 337/665 nm. For Kd determination, percent probe displacement values are calculated for each compound concentration and plotted against the compound concentration. […] Since the reporter probe is used at a concentration reflecting its own Kd value, compound Kd values can be calculated according to the Cheng Prusoff equation. […] Table 4. HDAC1 and HDAC2 Kd Values for Exemplary Compounds Useful in the Invention

HDAC2 [2] = target: T1, HDAC2; assay: Reporter displacement assay (HDAC2); assay type: binding
SH-SY5Y cells = assay: Cell assay in SH-SY5Y cells with HDAC-Glo 2 reagent; assay type: cell-based; details: Homo sapiens, 5 h, five hours at 37°C, CI-994 at 100 uM defined as 100% inhibition
Procedure: SH-SY5Y cells (Sigma) were cultured in Eagle's Modified Essential Medium supplemented with 10% fetal bovine serum and pen/strep. Twenty-four hours prior to compound dosing 20 uL of cells were plated in white 384 well plates at a density of 1,500 cells/well. Compounds were serially diluted in neat DMSO and then diluted 1:100 v/v into media without FBS and mixed. Media was removed from the plated cells and the diluted compounds in serum free media (1% v/v final DMSO) were added and incubated at 37°C for five hours. Ten uL of HDAC-Glo 2 reagent with 0.1% Triton X-100 was then added, the plate was mixed and allowed to develop at room temperature for 100 minutes. Plates were then read with a Spectramax LMax luminometer employing a 0.4s integration time. Dose response curves were constructed with normalized data where CI-994 at 100 uM was defined as 100% inhibition and DMSO alone as 0% inhibition. Table 5. IC50 and EC50 Values for Exemplary Compounds Useful in the Invention

recombinant human HDACs = assay: HDAC enzymatic assay (LabChip capillary electrophoresis); assay type: biochemical; details: 5 nM HDAC enzyme, 1 uM substrate, 5 hours pre-incubation, 17 hours reaction at 25°C; isoform not given
In short: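 Recombinant human HDAC (5 nM) was pre-incubated with compound for 5 h at 25 °C, then reacted with 1 µM FAM-TSRHK(Ac)KL substrate for 17 h at 25 °C in HEPES pH 7.5, 1% DMSO. Reactions were stopped with SDS, and substrate and product were separated by capillary electrophoresis and read as P/(S+P). IC50 was fitted by 4-parameter logistic from 12-point 3-fold dilutions starting at 30 µM, run in duplicate.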

T1 sequence (Q92769 whole entry): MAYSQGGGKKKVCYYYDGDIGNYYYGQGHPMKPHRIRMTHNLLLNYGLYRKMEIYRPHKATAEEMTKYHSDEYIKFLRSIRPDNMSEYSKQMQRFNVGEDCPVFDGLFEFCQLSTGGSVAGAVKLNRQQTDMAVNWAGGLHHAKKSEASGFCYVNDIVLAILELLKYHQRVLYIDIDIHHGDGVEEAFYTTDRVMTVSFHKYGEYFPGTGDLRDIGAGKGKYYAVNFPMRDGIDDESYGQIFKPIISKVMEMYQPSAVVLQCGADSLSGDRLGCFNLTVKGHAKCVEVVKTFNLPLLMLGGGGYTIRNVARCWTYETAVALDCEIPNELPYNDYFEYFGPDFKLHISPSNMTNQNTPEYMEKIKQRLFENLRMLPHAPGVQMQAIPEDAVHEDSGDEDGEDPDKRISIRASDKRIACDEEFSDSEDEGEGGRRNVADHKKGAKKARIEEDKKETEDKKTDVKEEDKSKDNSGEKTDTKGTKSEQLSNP
Chain of HDAC1 (Q13547 whole entry): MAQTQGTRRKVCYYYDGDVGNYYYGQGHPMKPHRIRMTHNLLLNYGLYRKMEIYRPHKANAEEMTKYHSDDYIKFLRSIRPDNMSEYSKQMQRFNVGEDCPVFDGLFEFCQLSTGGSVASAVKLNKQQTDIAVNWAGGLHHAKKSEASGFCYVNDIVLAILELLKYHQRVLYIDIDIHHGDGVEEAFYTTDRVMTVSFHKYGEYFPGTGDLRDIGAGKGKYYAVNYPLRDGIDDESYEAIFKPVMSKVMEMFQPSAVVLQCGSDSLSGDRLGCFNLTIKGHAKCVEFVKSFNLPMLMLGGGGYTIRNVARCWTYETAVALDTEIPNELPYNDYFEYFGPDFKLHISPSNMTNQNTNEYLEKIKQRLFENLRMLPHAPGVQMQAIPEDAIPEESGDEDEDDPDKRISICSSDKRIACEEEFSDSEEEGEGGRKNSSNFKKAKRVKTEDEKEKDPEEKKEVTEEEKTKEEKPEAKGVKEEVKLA

| SMILES | Kd (HDAC1) [nM] | Kd (HDAC2 [1]) [nM] | residence time (HDAC2 [2]) [min] | residence time (HDAC1) [min] | EC50 (SH-SY5Y cells) [nM] | IC50 (recombinant human HDACs) [nM] |
| --- | --- | --- | --- | --- | --- | --- |
| Nc1cc(F)c(-c2ccc(F)cc2)cc1NC(=O)C1CCOCC1 [Compound 115] | > 5000 | 500 to 5000 | 185 | – | – | – |
| Nc1cc(F)c(-c2ccc(F)cc2)cc1NC(=O)N1CCCC1 [Compound 114] | > 5000 | > 5000 | – | 49 | – | – |
| Nc1cnc(-c2ccc(F)cc2)nc1NC(=O)N1Cc2nccnc2C1 [Compound 121] | 500 to 5000 | > 5000 | 1200 | 682 | – | – |
| Nc1nn(-c2ccccc2)cc1NC(=O)N1Cc2ccncc2C1 [Compound 101] | > 5000 | > 5000 | – | – | – | – |
| Nc1cnc(-c2ccncc2)cc1NC(=O)N1CCCC1 [Compound 108] | 500 to 5000 | 500 to 5000 | 1430 | 401 | – | – |
| Nc1cc(F)c(-c2ccc(F)c(F)c2)cc1NC(=O)N1CCCC1 [Compound 116] | 500 to 5000 | 500 to 5000 | 114 | 87 | – | – |
| Nc1ccc(-c2ccc(F)cc2)c(F)c1NC(=O)N1Cc2nccnc2C1 [Compound 113] | < 100 | 100 to 500 | 609 | 350 | – | – |
| Nc1cn(-c2ccccc2)nc1NC(=O)N1Cc2ccncc2C1 [Compound 122] | 100 to 500 | 100 to 500 | 2380 | 572 | – | – |
| Nc1ncc(-c2ccc(F)cc2)cc1NC(=O)N1CC2CCCC2C1 (stereo not drawn) [Compound 104] | > 5000 | > 5000 | – | – | – | – |
| Nc1cc(F)c(-c2ccc(F)cc2)cc1NC(=O)N1Cc2nccnc2C1 [Compound 119] | 100 to 500 | 100 to 500 | 1200 | 126 | – | – |
| Nc1ccc(-c2ccc(F)cc2)c(F)c1NC(=O)C1CCOCC1 [Compound 118] | 500 to 5000 | 500 to 5000 | 176 | 69 | – | – |
| Nc1cc(F)c(-c2ccc(F)cc2)cc1NC(=O)N1Cc2ccncc2C1 [Compound 100] | 100 to 500 | 100 to 500 | 703 | 196 | – | – |
| Nc1ccc(-c2ccc(F)c(F)c2)c(F)c1NC(=O)N1CCCC1 [Compound 117] | > 5000 | > 5000 | 42 | – | – | – |
| Nc1cnc(-c2ccc(F)cc2)cc1NC(=O)N1CCCC1 [Compound 105] | 500 to 5000 | 500 to 5000 | 634 | 851 | – | – |
| Nc1ccc(-c2ccc(F)cc2)nc1NC(=O)N1Cc2nccnc2C1 [Compound 120] | 100 to 500 | 500 to 5000 | 1170 | 830 | – | – |
| Nc1ccc(-c2ccc(F)cc2)c(F)c1NC(=O)N1CCCC1 [Compound 112] | 100 to 500 | 100 to 500 | 790 | 329 | – | – |
| Nc1ccc(-c2ccncc2)nc1NC(=O)N1CCCC1 [Compound 111] | > 5000 | > 5000 | 540 | 151 | – | – |
| Nc1cnc(-c2ccc(F)cc2)cc1NC(=O)C1CCOCC1 [Compound 106] | > 5000 | > 5000 | – | 121 | – | – |
| Nc1ccc(-c2ccc(F)cc2)nc1NC(=O)C1CCOCC1 [Compound 109] | > 5000 | 500 to 5000 | 264 | 14 | – | – |
| Nc1ccc(-c2ccc(F)cc2)nc1NC(=O)N1CCCC1 [Compound 107] | 500 to 5000 | 500 to 5000 | 1280 | 653 | – | – |
| Nc1nn(-c2ccncc2)cc1NC(=O)N1Cc2ccncc2C1 [Compound 103] | > 5000 | > 5000 | – | – | – | – |
| Nc1nn(-c2ccc(F)cc2)cc1NC(=O)N1Cc2ccncc2C1 [Compound 102] | > 5000 | > 5000 | – | – | – | – |
| Nc1cnc(-c2ccc(F)cc2)nc1NC(=O)N1CCCC1 [Compound 110] | 500 to 5000 | > 5000 | – | 688 | – | – |
| Nc1ccc(-c2ccc(F)cc2)nc1NC(=O)N1Cc2ccc(CN3CCCC3)cc2C1 [Compound 405] | – | – | – | – | 100 to 500 | 100 to 500 |
| CN1CC(CN2C[C@@H]3[C@H](C2)[C@H]3C(=O)Nc2nc(-c3ccc(F)cc3)ccc2N)C1 [Compound 268] | – | – | – | – | > 5000 | > 5000 |
| Nc1ccc(-c2ccc(F)cc2)nc1NC(=O)N1Cc2cc(CN3CC(F)C3)cnc2C1 [Compound 275] | – | – | – | – | 100 to 500 | 100 to 500 |
| Nc1ccc(-c2ccc(F)cc2)nc1NC(=O)N1C[C@@H]2[C@H](C1)[C@H]2NC1COC1 [Compound 267] | – | – | – | – | > 5000 | > 5000 |
